Data as given in US12016884B2, “Adipose derived stem cell exosomes and uses thereof” (UNIVERSITY OF SOUTH FLORIDA, priority 2016, dated 2024).
“Also recorded” adds a separate entry of the source.

Test system: human dermal fibroblast (HDF) cells
Test: ECIS (electric cell-substrate impedance sensing) wound healing assay
Type: cell-based
Conditions: Dynasore about 50 μM added to media with 20 μg exosomes (FIG. 9)
Procedure: ECIS assays: The ECIS or electric cell-substrate impedance sensing instrument (Applied Biophysics) recorded the impedance on electrically wounded hHDF to detect the migratory response. Briefly, 200 μl of cell suspension were seeded per well of 8W1E ECIS array (5×10^4 cells per well) coated with about 1% gelatin. After cells were confluent in the incubator, the ECIS chambers were mounted to the ECIS system. […] Arrays were then washed with medium under the microscope to remove any dead cells on the electrodes. Thereafter, the wound healing process was determined in real-time by measuring the recovery of electrical impedance, an indicator of the surrounding viable fibroblast cells migrating into the wounded area. […]
Briefly, HDF cells on the micro-electrods of the ECIS wells were killed with a high electrical voltage. Subsequently, the migration of viable cells onto the wounded microelectrodes was measured in real-time by electrical resistance in the presence of bFGF ([…]), about 10 μg/mL exosomes, and about 20 μg/mL exosome respectively. The percentage of recovery was calculated by the difference in the resistance of each time point and the resistance of the first time point after wounding divided by the resistance before the wounding. […]

In the case of `O=C(N/N=C/c1ccc(O)c(O)c1)c1cc2ccccc2cc1O` [Dynasore], the “effect on exosome-driven cell migration in ECIS” value was “blocked the cell migratory effect of exosomes; also recorded: greatly attenuate cell migration; also recorded: inhibition of migration”.
